From US10934310B2, “Inhibitors of Bruton's tyrosine kinase and method of their use” (JANSSEN PHARMACEUTICA NV, priority 2015, dated 2021)

Biological target: unphosphorylated-BTK kinase domain (UP-BTK), GST-tagged human BTK (389-659aa) (Homo sapiens (Human), UniProt Q06187)
Assay: BTK Kinase Lanthascreen Binding Assay
Conditions: for BTK_I_binding pIC50: compound, 50 nM Tracer 236, 2 nM anti-GST antibody, 60 minutes, pIC50 = negative log of the IC50 in molar; for IC50: read-out: BTK_I_binding pIC50 (converted)
Description: BTK Kinase Lanthascreen Binding Assay:
A BTK kinase lanthascreen binding assay monitors compound binding to unphosphorylated-BTK kinase domain (UP-BTK), by competing with a fluorescent labeled tracer. […] Data were analyzed using Xlfit™ version 5.3 from ID Business Solutions (Guildford), Microsoft Excel add-in. pIC50 refers to the negative log of the IC50 in molar.

Sequence of unphosphorylated-BTK kinase domain (UP-BTK), GST-tagged human BTK (389-659aa) (Q06187 389-659): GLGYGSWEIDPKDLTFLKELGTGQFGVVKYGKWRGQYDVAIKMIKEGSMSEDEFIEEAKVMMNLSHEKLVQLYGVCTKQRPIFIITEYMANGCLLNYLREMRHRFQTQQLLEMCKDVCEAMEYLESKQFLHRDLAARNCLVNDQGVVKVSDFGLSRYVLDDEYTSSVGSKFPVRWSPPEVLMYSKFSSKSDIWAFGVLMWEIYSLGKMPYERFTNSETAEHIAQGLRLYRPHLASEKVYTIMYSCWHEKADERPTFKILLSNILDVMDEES

`Cc1cc(Oc2ccccc2)ncc1N1C(=O)Nc2c(C(=O)N[C@@H]3CCC[C@H]3N)sc3nccc1c23` (single isomer, unassigned) [Example 233] was tested, and the “BTK_I_binding pIC50” value was 6.85.
With `C=CC(=O)N[C@H]1CCC[C@@H](NC(=O)c2sc3nccc4c3c2NC(=O)N4c2ccc(Oc3ccccc3)cc2C)C1` (single isomer, unassigned) [Example 237, N-((1R,3S)-3-Acrylamidocyclohexyl)-5-(*S)-(2-methyl-4-phenoxyphenyl)-4-oxo-4,5-dihydro-3H-1-thia-3,5,8-triazaacenaphthylene-2-carboxamide] the “BTK_I_binding pIC50” value was 6.56.
For `C=CC(=O)N[C@H]1CCCC[C@H]1NC(=O)c1sc2nccc3c2c1NC(=O)N3c1ccc(OC(C)C)nc1C` (single isomer, unassigned) [Example 238, N-((1R,2S)-2-Acrylamidocyclohexyl)-5-(*R)-(6-isopropoxy-2-methylpyridin-3-yl)-4-oxo-4,5-dihydro-3H-1-thia-3,5,8-triazaacenaphthylene-2-carboxamide], the “BTK_I_binding pIC50” value was 6.95.
In the case of `Cc1cc(Oc2ccccc2)ccc1N1C(=O)Nc2c(C(=O)N[C@@H]3CC[C@H](N)C3)sc3nccc1c23` (single isomer, unassigned) [Example 240, N-((1R,3S)-3-Aminocyclopentyl)-5-(*S)-(2-methyl-4-phenoxyphenyl)-4-oxo-4,5-dihydro-3H-1-thia-3,5,8-triazaacenaphthylene-2-carboxamide], the “BTK_I_binding pIC50” value is reported as 6.72.
In the case of `CC(=O)N[C@H]1CC[C@H](NC(=O)c2sc3nccc4c3c2NC(=O)N4c2ccc(Oc3ccccc3)cc2C)C1` (single isomer, unassigned) [Example 241, N-((1S,3S)-3-Acetamidocyclopentyl)-5-(*S)-(2-methyl-4-phenoxyphenyl)-4-oxo-4,5-dihydro-3H-1-thia-3,5,8-triazaacenaphthylene-2-carboxamide], the “BTK_I_binding pIC50” value is reported as 7.26.
For `C=CC(=O)N[C@H]1CCCC[C@H]1NC(=O)c1sc2nccc3c2c1NC(=O)N3c1ccc(OC2CCC2)nc1C` (single isomer, unassigned) [Example 242, N-((1R,2S)-2-Acrylamidocyclohexyl)-5-(*R)-(6-cyclobutoxy-2-methylpyridin-3-yl)-4-oxo-4,5-dihydro-3H-1-thia-3,5,8-triazaacenaphthylene-2-carboxamide], the “BTK_I_binding pIC50” value was 7.04.
In the case of `CC(=O)N[C@H]1CCC[C@H](NC(=O)c2sc3nccc4c3c2NC(=O)N4c2ccc(Oc3ccccc3)cc2C)C1` (single isomer, unassigned) [Example 243, N-((1S,3S)-3-Acetamidocyclohexyl)-5-(*S)-(2-methyl-4-phenoxyphenyl)-4-oxo-4,5-dihydro-3H-1-thia-3,5,8-triazaacenaphthylene-2-carboxamide], the “BTK_I_binding pIC50” value is reported as 6.85.
With `CC(=O)N[C@H]1CC[C@@H](NC(=O)c2sc3nccc4c3c2NC(=O)N4c2ccc(Oc3ccccc3)cc2C)C1` (single isomer, unassigned) [Example 244, N-((1R,3S)-3-Acetamidocyclopentyl)-5-(*S)-(2-methyl-4-phenoxyphenyl)-4-oxo-4,5-dihydro-3H-1-thia-3,5,8-triazaacenaphthylene-2-carboxamide] the “BTK_I_binding pIC50” value was 6.66.
`Cc1cc(Oc2ccccc2)ccc1N1C(=O)Nc2c(C(=O)N[C@H]3CCC[C@H](N)C3)sc3nccc1c23` (single isomer, unassigned) [Example 247, N-((1S,3S)-3-Aminocyclohexyl)-5-(*S)-(2-methyl-4-phenoxyphenyl)-4-oxo-4,5-dihydro-3H-1-thia-3,5,8-triazaacenaphthylene-2-carboxamide] was tested, and the “BTK_I_binding pIC50” value was 6.66.
With `Cc1cc(Oc2ccccc2)ccc1N1C(=O)Nc2c(C(=O)N[C@H]3CCC[C@H](NC(=O)CN)C3)sc3nccc1c23` (single isomer, unassigned) [Example 251, N-((1R,3S)-3-(2-Aminoacetamido)cyclohexyl)-5-(*S)-(2-methyl-4-phenoxyphenyl)-4-oxo-4,5-dihydro-3H-1-thia-3,5,8-triazaacenaphthylene-2-carboxamide] the “BTK_I_binding pIC50” value was 6.71.
In the case of `Cc1cc(Oc2ccccc2)ccc1N1C(=O)Nc2c(C(=O)N[C@H]3CCC[C@H](NC(=O)CN(C)C)C3)sc3nccc1c23` (single isomer, unassigned) [Example 252, N-((1R,3S)-3-(2-(Dimethylamino)acetamido)cyclohexyl)-5-(*S)-(2-methyl-4-phenoxyphenyl)-4-oxo-4,5-dihydro-3H-1-thia-3,5,8-triazaacenaphthylene-2-carboxamide], the “BTK_I_binding pIC50” value is reported as 6.63.
For `CC(=O)N[C@H]1CCC[C@H](NC(=O)c2sc3nccc4c3c2NC(=O)N4c2ccc(Oc3ccccc3)cc2C)C1` (single isomer, unassigned) [Example 253, N-((1R,3S)-3-Acetamidocyclohexyl)-5-(*S)-(2-methyl-4-phenoxyphenyl)-4-oxo-4,5-dihydro-3H-1-thia-3,5,8-triazaacenaphthylene-2-carboxamide], the “BTK_I_binding pIC50” value was 6.63.
For `Cc1nc(Oc2ccccc2)ncc1N1C(=O)Nc2c(C(=O)N[C@@H]3CCC[C@@H]3N)sc3nccc1c23` (single isomer, unassigned) [Example 254, N-((1R,2S)-2-aminocyclopentyl)-5-(*)-(4-methyl-2-phenoxypyrimidin-5-yl)-4-oxo-4,5-dihydro-3H-1-thia-3,5,8-triazaacenaphthylene-2-carboxamide], the “BTK_I_binding pIC50” value was 6.55.
For `Cc1cc(Oc2ccccc2)ncc1N1C(=O)Nc2c(C(=O)N[C@@H]3CCCC[C@H]3N)sc3nccc1c23` (single isomer, unassigned) [Example 255, N-((1R,2R)-2-Aminocyclohexyl)-5-(*S)-(4-methyl-6-phenoxypyridin-3-yl)-4-oxo-4,5-dihydro-3H-1-thia-3,5,8-triazaacenaphthylene-2-carboxamide], the “BTK_I_binding pIC50” value was 6.51.
For `Cc1nc(Oc2ccccc2)ncc1N1C(=O)Nc2c(C(=O)N[C@@H]3CCC[C@H]3N)sc3nccc1c23` (single isomer, unassigned) [Example 256, N-((1R,2R)-2-Aminocyclopentyl)-5-(*S)-(4-methyl-2-phenoxypyrimidin-5-yl)-4-oxo-4,5-dihydro-3H-1-thia-3,5,8-triazaacenaphthylene-2-carboxamide], the “BTK_I_binding pIC50” value was 6.48.
`Cc1cc(Oc2ccccc2)ccc1N1C(=O)Nc2c(C(=O)N[C@H]3CC[C@H](N)C3)sc3nccc1c23` (single isomer, unassigned) [Example 259, N-((1S,3S)-3-Aminocyclopentyl)-5-(*S)-(2-methyl-4-phenoxyphenyl)-4-oxo-4,5-dihydro-3H-1-thia-3,5,8-triazaacenaphthylene-2-carboxamide] was tested, and the “BTK_I_binding pIC50” value was 6.45.
With `Cc1cc(Oc2ccccc2)ccc1N1C(=O)Nc2c(C(=O)N[C@@H]3CCC[C@H](N)C3)sc3nccc1c23` (single isomer, unassigned) [Example 261, N-((1R,3S)-3-Aminocyclohexyl)-5-(*S)-(2-methyl-4-phenoxyphenyl)-4-oxo-4,5-dihydro-3H-1-thia-3,5,8-triazaacenaphthylene-2-carboxamide] the “BTK_I_binding pIC50” value was 6.42.
`Cc1cc(OC(C)C)ccc1N1C(=O)Nc2c(C(=O)N[C@@H]3CCC[C@@H]3N)sc3nccc1c23` (single isomer, unassigned) [Example 262, N-((1R,2S)-2-Aminocyclopentyl)-5-(*R)-(4-isopropoxy-2-methylphenyl)-4-oxo-4,5-dihydro-3H-1-thia-3,5,8-triazaacenaphthylene-2-carboxamide] was tested, and the “BTK_I_binding pIC50” value was 6.39.
`C=CC(=O)N[C@@H]1CCCC[C@H]1NC(=O)c1sc2nccc3c2c1NC(=O)N3c1ccc(OC(C)C)cc1C` (single isomer, unassigned) [Example 264, N-((1R,2R)-2-Acrylamidocyclohexyl)-5-(*R)-(4-isopropoxy-2-methylphenyl)-4-oxo-4,5-dihydro-3H-1-thia-3,5,8-triazaacenaphthylene-2-carboxamide] was tested, and the “BTK_I_binding pIC50” value was 6.26.
In the case of `C=CC(=O)N[C@H]1CCCC[C@H]1NC(=O)c1sc2nccc3c2c1NC(=O)N3c1cnc(OC2CCC2)cc1C` (single isomer, unassigned) [Example 266, N-((1R,2S)-2-Acrylamidocyclohexyl)-5-(*R)-(6-cyclobutoxy-4-methylpyridin-3-yl)-4-oxo-4,5-dihydro-3H-1-thia-3,5,8-triazaacenaphthylene-2-carboxamide], the “BTK_I_binding pIC50” value is reported as 6.21.
Compound `C=CC(=O)N[C@H]1CCCC[C@@H]1NC(=O)c1sc2nccc3c2c1NC(=O)N3c1ccc(OC(C)C)cc1C` (single isomer, unassigned) [Example 272, N-((1S,2S)-2-Acrylamidocyclohexyl)-5-(*R)-(4-isopropoxy-2-methylphenyl)-4-oxo-4,5-dihydro-3H-1-thia-3,5,8-triazaacenaphthylene-2-carboxamide] has an IC50 greater than 1000 nM.
For `C=CC(=O)N[C@@H]1CCCC[C@H]1NC(=O)c1sc2nccc3c2c1NC(=O)N3c1ccc(OC(C)C)cc1C` (single isomer, unassigned) [Example 273, N-((1R,2R)-2-Acrylamidocyclohexyl)-5-(*S)-(4-isopropoxy-2-methylphenyl)-4-oxo-4,5-dihydro-3H-1-thia-3,5,8-triazaacenaphthylene-2-carboxamide], the IC50 was greater than 1000 nM.
`C=CC(=O)N[C@H]1CCC[C@H](NC(=O)c2sc3nccc4c3c2NC(=O)N4c2ccc(OC(C)C)cc2C)C1` (single isomer, unassigned) [Example 274, N-((1S, S)-3-Acrylamidocyclohexyl)-5-(*R)-(4-isopropoxy-2-methylphenyl)-4-oxo-4,5-dihydro-3H-1-thia-3,5,8-triazaacenaphthylene-2-carboxamide] was tested, and the IC50 was greater than 1000 nM.
